Structures can show the parent of a compound that is named as a salt. Where two headings read alike, the source gives them in different places.
Key:
[1] = tested on: human iPSC neurons and astrocytes treated with 5 μM sAβ42s; assay: Focused small molecule screen, double culture (neuron, astrocyte), rescue from sAβ42s toxicity, high content imaging; assay type: cell-based; settings: for percent rescue from sAβ42s toxicity at 6.25 µM / percent rescue from sAβ42s toxicity at 25 µM / percent rescue from sAβ42s toxicity at 50 µM: Homo sapiens, iPSC; for percent rescue from sAβ42s toxicity at 6.25 µM / percent rescue from sAβ42s toxicity at 25 µM / percent rescue from sAβ42s toxicity at 50 µM / % B3T rescue / % Cux2 rescue / % MAP2 rescue / % Synapse rescue: double culture, 5 μM sAβ42s
Procedure: (§1) FIGS. 11A-11D show synapse % rescue versus MAP2% rescue (FIGS. 11A-11B) and beta III tubulin % rescue versus MAP2% rescue (FIGS. 11C-11D), in neurons and astrocytes (FIGS. 11A and 11C) or neurons, astrocytes, and microglia (FIGS. 11B and 11D) treated with 5 μM sAβ42s and small molecules from a focused screen of known neuroprotective agents at multiple concentrations (50 μM, 25 μM, 12.5 μM and 6.25 μM (double culture), 50 μM, 12.5 μM, 3.1 μM and 0.78 μM (triple culture). Small molecules that prevented toxicity in dendrites (MAP2), synapses (Synapsin 1/2), cell count (CUX2), or axons ([…]) at or above 30% were considered hits (red dotted line).
Neurons from both NSC lines were evaluated by immunofluorescence staining. Briefly, cells were fixed with 4% PFA and 4% sucrose at room temperature for 20 minutes using Bravo automation. Fixed cells were then washed 2 times with PBS using Biotek 406 microplate washer (Beckman Coulter), followed by permeabilization and blocking by incubation with a solution containing 1×PBS, 0.1% Triton X-100, 2% donkey serum, and 1% BSA at room temperature for 30 minutes. Blocking solution was removed and cells were incubated with primary antibodies in blocking solution overnight at 4° C. After washing 6 times with PBS on Biotek 406 cell plate washer (Beckman Coulter), cells were then incubated with fluorophore-conjugated secondary antibodies for 1 hour at room temperature in the dark to avoid photobleaching. Cells were then washed 6 more times in with PBS before imaging. Fluorescent images were captured using IN Cell 6000 confocal microscope (GE Healthcare Life Sciences). The image analysis was performed with IN Cell 6000 analysis software.
Prior to experimentation, media volume in wells containing neurons was equalized with liquid handling automation (Bravo) in order to ensure precise control of concentrations. All Aβ42 oligomers, anti-Aβ, small molecules, inflammatory cytokines were prepared at 10× concentration and added to Neuronal Culture Media at an appropriate volume. For the repeated dosing experiments, the media were refreshed 50% at each dosing first, before adding Aβ42 oligomers, and/or anti-Aβ antibody at the specified final concentration.
(§2) In double (neuron, astrocyte) and triple (neuron, astrocyte, microglia) cultures, each small molecule listed in Table 1 was tested in the AD model paradigm at up to four concentrations. Molecules that characterized ≥30% rescue in any of the four measurements of dendrites area (MAP2), synapses count (synapsin 1/2), or cell count (CUX2), or axon area (Beta III Tubulin; “BT3”)) were classified as hits (FIGS. 11A-11D, Table 2, and Table 3).

[2] = tested on: human iPSC neurons, astrocytes and microglia treated with 5 μM sAβ42s; assay: Focused small molecule screen, triple culture (neuron, astrocyte, microglia), rescue from sAβ42s toxicity; assay type: cell-based; settings: for percent rescue from sAβ42s toxicity at 0.78 µM / percent rescue from sAβ42s toxicity at 3.13 µM / percent rescue from sAβ42s toxicity at 12.5 µM / percent rescue from sAβ42s toxicity at 50 µM: Homo sapiens, iPSC; for percent rescue from sAβ42s toxicity at 0.78 µM: 0.78 μM compound
Procedure: as §1
Frozen cells were thawed and immediately seeded at a density of 8,000 cells/well of a 384-well plate onto 8-week old neuron-astrocyte co-culture in Microglia media (BrainPhys™ neuronal media (Stem Cell Technologies) supplemented with 1× B27 with vitamin A, 1×N2 Plus Media Supplement (R&D Systems), 20 ng/mL BDNF, 20 ng/mL GDNF, 1 mM creatine, 200 nM L-ascorbic acid, 1 μg/mL mouse laminin, 0.5 mM GlutaMAX™ (Thermofisher), 0.5× penicillin-streptomycin, 1× normocin, 5 ng/mL TGF-β, 100 ng/mL human IL-34, 1.5 μg/mL cholesterol, 1 ng/mL gondoic acid, 100 ng/mL oleic acid, 460 μM thioglycerol, 1× insulin-transferrin-selenium, 25 ng/mL rhM-CSF, 5.4 μg/mL human insulin solution).
as §2

[3] = 25 μM compound, read-out: % B3T rescue
[4] = 25 μM compound, read-out: % Cux2 rescue
[5] = 25 μM compound, read-out: % MAP2 rescue
[6] = 25 μM compound, read-out: % Synapse rescue
[7] = 50 μM compound, read-out: % B3T rescue
[8] = 50 μM compound, read-out: % Cux2 rescue
[9] = 50 μM compound, read-out: % MAP2 rescue
[10] = 50 μM compound, read-out: % Synapse rescue

SMILES | percent rescue from sAβ42s toxicity at 50 µM [1, 7] | percent rescue from sAβ42s toxicity at 50 µM [1, 8] | percent rescue from sAβ42s toxicity at 50 µM [1, 9] | percent rescue from sAβ42s toxicity at 50 µM [1, 10] | % B3T rescue ([1]; 6.25 μM compound) | % Cux2 rescue ([1]; 6.25 μM compound) | % MAP2 rescue ([1]; 6.25 μM compound) | % Synapse rescue ([1]; 6.25 μM compound) | % B3T rescue ([1]; 12.5 μM compound) | % Cux2 rescue ([1]; 12.5 μM compound) | % MAP2 rescue ([1]; 12.5 μM compound) | % Synapse rescue ([1]; 12.5 μM compound) | % B3T rescue ([1]; 25 μM compound) | % Cux2 rescue ([1]; 25 μM compound) | % MAP2 rescue ([1]; 25 μM compound) | % Synapse rescue ([1]; 25 μM compound) | % B3T rescue ([1]; 50 μM compound) | % Cux2 rescue ([1]; 50 μM compound) | % MAP2 rescue ([1]; 50 μM compound) | % Synapse rescue ([1]; 50 μM compound) | further results
N#Cc1ccnc(Nc2cc(C3CCN(C4COC4)CC3)cc(N3CCC(F)(F)C3)n2)c1 [GNE-3511] | 58% | 81% | 87% | 47% | – | – | – | – | – | – | – | – | – | – | – | – | – | – | – | – | percent rescue from sAβ42s toxicity at 6.25 µM ([1]; 6.25 μM compound, read-out: % B3T rescue): 15%; percent rescue from sAβ42s toxicity at 6.25 µM ([1]; 6.25 μM compound, read-out: % Cux2 rescue): 18%; percent rescue from sAβ42s toxicity at 6.25 µM ([1]; 6.25 μM compound, read-out: % MAP2 rescue): 32%; percent rescue from sAβ42s toxicity at 6.25 µM ([1]; 6.25 μM compound, read-out: % Synapse rescue): 7%; percent rescue from sAβ42s toxicity at 25 µM [1, 3]: 17%; percent rescue from sAβ42s toxicity at 25 µM [1, 4]: 36%; percent rescue from sAβ42s toxicity at 25 µM [1, 5]: 49%; percent rescue from sAβ42s toxicity at 25 µM [1, 6]: 14%; percent rescue from sAβ42s toxicity at 0.78 µM ([2]; read-out: % B3T rescue): 85%; percent rescue from sAβ42s toxicity at 0.78 µM ([2]; read-out: % MAP2 rescue): 91%; percent rescue from sAβ42s toxicity at 0.78 µM ([2]; read-out: % Synapse rescue): 79%; percent rescue from sAβ42s toxicity at 3.13 µM ([2]; 3.13 μM compound, read-out: % B3T rescue): 81%; percent rescue from sAβ42s toxicity at 3.13 µM ([2]; 3.13 μM compound, read-out: % MAP2 rescue): 95%; percent rescue from sAβ42s toxicity at 3.13 µM ([2]; 3.13 μM compound, read-out: % Synapse rescue): 77%; percent rescue from sAβ42s toxicity at 12.5 µM ([2]; 12.50 μM compound, read-out: % B3T rescue): 82%; percent rescue from sAβ42s toxicity at 12.5 µM ([2]; 12.50 μM compound, read-out: % MAP2 rescue): 102%; percent rescue from sAβ42s toxicity at 12.5 µM ([2]; 12.50 μM compound, read-out: % Synapse rescue): 81%; percent rescue from sAβ42s toxicity at 50 µM ([2]; 50.00 μM compound, read-out: % B3T rescue): 65%; percent rescue from sAβ42s toxicity at 50 µM ([2]; 50.00 μM compound, read-out: % MAP2 rescue): 66%; percent rescue from sAβ42s toxicity at 50 µM ([2]; 50.00 μM compound, read-out: % Synapse rescue): 56%
C=C[C@@]1(C)CC(=O)[C@]2(O)[C@@]3(C)[C@@H](O)CCC(C)(C)[C@@H]3[C@H](OC(=O)CCN(C)C)[C@H](OC(C)=O)[C@@]2(C)O1.Cl [NKH 477] | – | – | – | – | 38% | 21% | 39% | 7% | 38% | 24% | 45% | 5% | 35% | 21% | 43% | −4% | 38% | 45% | 44% | −5% | % B3T rescue ([2]; 3.13 μM compound): 42%; % MAP2 rescue ([2]; 3.13 μM compound): 17%; % Synapse rescue ([2]; 3.13 μM compound): 12%; % B3T rescue ([2]; 12.50 μM compound): 49%; % MAP2 rescue ([2]; 12.50 μM compound): 9%; % Synapse rescue ([2]; 12.50 μM compound): 8%; % B3T rescue ([2]; 50.00 μM compound): 81%; % MAP2 rescue ([2]; 50.00 μM compound): 53%; % Synapse rescue ([2]; 50.00 μM compound): 38%
Cc1ccc(S(=O)(=O)/C=C/C#N)cc1 [BAY 11-7082] | – | – | – | – | 38% | 70% | 34% | −2% | 31% | 85% | 36% | −3% | 14% | 82% | 17% | −13% | – | – | – | – | % B3T rescue ([2]; 50.00 μM compound): 44%; % MAP2 rescue ([2]; 50.00 μM compound): 21%; % Synapse rescue ([2]; 50.00 μM compound): −1%
N#CC(c1ccnc(NCCc2cccnc2)n1)c1nc2ccccc2s1 (centres unmarked) [AS601245] | – | – | – | – | 14% | 9% | 49% | 37% | 20% | 13% | 67% | 57% | 11% | 32% | 73% | 36% | −16% | 123% | 64% | 19% | protection in focused screens ([1]; double and triple cultures): protective to a lesser extent; % B3T rescue ([2]; 3.13 μM compound): 18%; % MAP2 rescue ([2]; 3.13 μM compound): 54%; % Synapse rescue ([2]; 3.13 μM compound): 17%; % B3T rescue ([2]; 12.50 μM compound): 26%; % MAP2 rescue ([2]; 12.50 μM compound): 74%; % Synapse rescue ([2]; 12.50 μM compound): 26%; % B3T rescue ([2]; 50.00 μM compound): 44%; % MAP2 rescue ([2]; 50.00 μM compound): 95%; % Synapse rescue ([2]; 50.00 μM compound): 45%
CN1C(=O)C(Cc2c[nH]c3ccccc23)NC1=S (centres unmarked) [Necrostatin-1] | – | – | – | – | – | – | – | – | – | – | – | – | – | – | – | – | 11% | 10% | 37% | 15% | –
O=c1cc(-c2ccccc2)oc2c(O)c(O)ccc12 [7,8-Dihydroxyflavone] | -14% | 42% | 6% | -2% | – | – | – | – | – | – | – | – | – | – | – | – | – | – | – | – | –
O=C1Nc2ccc(I)cc2/C1=C/c1cc(Br)c(O)c(Br)c1 [GW 5074] | – | – | – | – | 16% | 95% | 17% | 8% | 9% | 76% | 12% | 6% | 14% | 115% | 19% | 8% | 48% | 162% | 54% | 8% | –
CN(C)[C@@H]1C(O)=C(C(N)=O)C(=O)[C@@]2(O)C(O)=C3C(=O)c4c(O)ccc(Cl)c4[C@@H](O)[C@H]3C[C@@H]12 [Demeclocydine hydrochloride, Demeclocycline hydrochloride] | 63% | 33% | 39% | 27% | – | – | – | – | – | – | – | – | – | – | – | – | – | – | – | – | percent rescue from sAβ42s toxicity at 25 µM [1, 3]: 35%; percent rescue from sAβ42s toxicity at 25 µM [1, 4]: 6%; percent rescue from sAβ42s toxicity at 25 µM [1, 5]: 23%; percent rescue from sAβ42s toxicity at 25 µM [1, 6]: 15%

Reference: US20230014181A1, “CULTURE SYSTEM AND METHODS FOR IMPROVED MODELING OF NEUROLOGICAL CONDITIONS” (Genentech, Inc., priority 2021, published 2023)
